Laboratory results published in PubChem BioAssay (NCI).
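Protocol summary: plate cells (96-well), add compound at 5 concentrations, incubate 48 h, interpolate endpoints linearly. GI50 = concentration required for 50% inhibition of growth. At the TGI there is no net growth.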

Key:
Experiment in all cases: DTP human tumour cell line panel, 48 h
[1] = tested on: ACHN renal
[2] = tested on: OVCAR-4 ovarian
[3] = tested on: DU-145 prostate
[4] = tested on: MDA-MB-435
[5] = tested on: NCI/ADR-RES ovarian
[6] = tested on: HCT-15 colon
[7] = tested on: U251 CNS
[8] = tested on: CAKI-1 renal
[9] = tested on: SK-MEL-2 melanoma
[10] = tested on: A498 renal

## Cn1c2ccccc2c2c3c(c4c5ccccc5n(C)c4c21)C(=O)c1ccccc1C3=O
[1]
  TGI: 97.3 µM
[2]
  TGI: > 100 µM
[3]
  TGI: > 100 µM
[4]
  TGI: > 100 µM
[5]
  TGI: > 100 µM
[6]
  TGI: > 100 µM
[7]
  TGI: 45.9 µM
[8]
  TGI: > 100 µM
[9]
  TGI: > 100 µM

## O=C(NCc1ccc(Cl)cc1)c1cc2sccc2nc1C(F)(F)F
[1]
  TGI: 45.8 µM
[2]
  TGI: 44.8 µM
[4]
  TGI: > 100 µM
[5]
  TGI: > 100 µM
[7]
  TGI: 44.6 µM
[8]
  TGI: > 100 µM
[9]
  TGI: > 100 µM

## Clc1ccc(N=c2oc3ccccc3cc2-c2nc3ccccc3[nH]2)c(Cl)c1
[1]
  TGI: > 100 µM
[2]
  TGI: > 100 µM
[3]
  TGI: > 100 µM
[4]
  TGI: > 100 µM
[5]
  TGI: > 100 µM
[6]
  TGI: > 100 µM
[8]
  TGI: > 100 µM

## NNC(=S)N1CCN(C(=S)NN)CC1
[1]
  TGI: > 100 µM
[2]
  TGI: > 100 µM
[3]
  TGI: > 100 µM
[4]
  TGI: > 100 µM
[7]
  TGI: > 100 µM
[8]
  TGI: > 100 µM
[10]
  TGI: > 100 µM
[9]
  TGI: > 100 µM

## CN(Cc1cnc2nc(N)nc(N)c2n1)c1ccc(C(=O)NC(CCC(=O)NC(P(=O)(O)O)P(=O)(O)O)C(=O)O)cc1 (centres undefined)
[1]
  TGI: > 100 µM
[2]
  TGI: > 100 µM
[3]
  TGI: > 100 µM
[4]
  TGI: > 100 µM
[5]
  TGI: > 100 µM
[6]
  TGI: > 100 µM
[7]
  TGI: > 100 µM
[8]
  TGI: 29.8 µM
[9]
  TGI: > 100 µM

## COc1cc(S(=O)(=O)Nc2ccc(C3=NNC(c4ccccc4)C3)cc2)ccc1F (centres undefined)
[1]
  GI50: 35.2 µM
  TGI: > 100 µM
[2]
  GI50: 50.6 µM
  TGI: > 100 µM
[3]
  GI50: 76.1 µM
  TGI: > 100 µM
[4]
  GI50: 47.2 µM
  TGI: > 100 µM
[5]
  GI50: 36.3 µM
  TGI: > 100 µM
[6]
  GI50: 49 µM
  TGI: > 100 µM
[7]
  GI50: 43.5 µM
  TGI: > 100 µM
[8]
  GI50: 37.3 µM
  TGI: > 100 µM
[9]
  GI50: > 100 µM
  TGI: > 100 µM

## Nc1cc(N2CCCC2)nc(=O)n1Cc1ccccc1
[1]
  TGI: > 100 µM
[2]
  TGI: > 100 µM
[3]
  TGI: > 100 µM
[4]
  TGI: > 100 µM
[5]
  TGI: > 100 µM
[6]
  TGI: > 100 µM
[7]
  TGI: > 100 µM
[8]
  TGI: > 100 µM
[9]
  TGI: > 100 µM

## CC(=O)Oc1ccc(C2COc3cc(OC(C)=O)c(OC(C)=O)cc3C2)cc1 (centres undefined)
[2]
  TGI: 29.1 µM
[5]
  TGI: 48.7 µM
[6]
  TGI: 40.8 µM
[7]
  TGI: 60.4 µM
[8]
  TGI: 27.3 µM
[10]
  TGI: 13.8 µM
[9]
  TGI: 41.5 µM

## COc1cc(/C=C2/N=C(c3ccccc3)N(C3=NNC4(C(=O)N3)c3ccccc3-c3ccccc34)NC2=O)ccc1O
[1]
  GI50: 36.3 µg/mL
  TGI: 123 µg/mL
[2]
  GI50: 27.4 µg/mL
  TGI: 62.1 µg/mL
[3]
  GI50: 31.3 µg/mL
  TGI: 63.6 µg/mL
[4]
  GI50: 26.7 µg/mL
  TGI: 54.4 µg/mL
[5]
  GI50: 45.8 µg/mL
  TGI: > 150 µg/mL
[6]
  GI50: 46.7 µg/mL
  TGI: > 150 µg/mL
[7]
  GI50: 24.5 µg/mL
  TGI: 44.8 µg/mL
[8]
  GI50: 22.4 µg/mL
  TGI: 75.1 µg/mL

## COc1cc(/C=C2\CCC(C)C3=C2NC(=S)NC3c2cc(OC)c(OC)c(OC)c2)cc(OC)c1OC (centres undefined)
[1]
  TGI: > 100 µM
[2]
  TGI: > 100 µM
[3]
  TGI: > 100 µM
[4]
  TGI: > 100 µM
[6]
  TGI: > 100 µM
[7]
  TGI: > 100 µM
[8]
  TGI: > 100 µM
[10]
  TGI: > 100 µM
[9]
  TGI: > 100 µM

## COc1cc2c(cc1OC)-c1c3c(cc4c1[C@@H](C2)N(C)CC4)OCO3
[2]
  TGI: 22.8 µM
[5]
  TGI: 30.2 µM
[6]
  TGI: 40.8 µM
[7]
  TGI: 48.8 µM
[8]
  TGI: 51.4 µM
[10]
  TGI: 16.9 µM
[9]
  TGI: 22 µM

## O=C(NCCCNCCNC(=O)c1cc(-c2ccccc2)nc2ccccc12)c1cc(-c2ccccc2)nc2ccccc12
[1]
  TGI: 3.3 µM
[2]
  TGI: 4.08 µM
[4]
  TGI: 3.15 µM
[5]
  TGI: 4.12 µM
[6]
  TGI: 3.23 µM
[7]
  TGI: 3.24 µM
[8]
  TGI: 5.45 µM
[10]
  TGI: 4.76 µM

## O=c1[nH]nc(Cc2ccccc2)n1-n1cnnc1
[1]
  TGI: > 100 µM
[2]
  TGI: > 100 µM
[3]
  TGI: > 100 µM
[4]
  TGI: > 100 µM
[5]
  TGI: > 100 µM
[6]
  TGI: > 100 µM
[7]
  TGI: > 100 µM
[9]
  TGI: > 100 µM

## CCc1ccc2c(c1)CC1(C2)Cc2cc3c(cc2C1)C(=O)CC3 (centres undefined)
[1]
  TGI: 63.9 µM
[2]
  TGI: 65.4 µM
[4]
  TGI: 8.53 µM
[5]
  TGI: > 100 µM
[6]
  TGI: 67.3 µM
[7]
  TGI: > 100 µM
[10]
  TGI: 46.4 µM
[9]
  TGI: 16.8 µM

## C[C@]12CC[C@H](O)CC1=CC[C@@H]1[C@@H]2CC[C@]2(C)/C(=N/OCCN3CCCC3)CC[C@@H]12
[1]
  TGI: 68.2 µM
[2]
  TGI: 36 µM
[4]
  TGI: 29.4 µM
[5]
  TGI: 52.7 µM
[6]
  TGI: 28.8 µM
[7]
  TGI: 36.2 µM
[8]
  TGI: 40.7 µM
[10]
  TGI: 29.8 µM
[9]
  TGI: 45.1 µM

## COc1ccc(C(=O)N2c3ccccc3Sc3ccccc32)c(C(F)(F)F)c1
[1]
  GI50: 1.33 µM
  TGI: > 100 µM
[2]
  GI50: 1.98 µM
  TGI: > 100 µM
[3]
  GI50: 0.433 µM
  TGI: > 100 µM
[5]
  GI50: 0.37 µM
  TGI: > 100 µM
[6]
  GI50: 0.405 µM
  TGI: > 100 µM
[7]
  GI50: 0.5 µM
  TGI: > 100 µM
[8]
  GI50: 0.692 µM
  TGI: > 100 µM
[10]
  GI50: 0.282 µM
  TGI: 0.877 µM
[9]
  GI50: 0.677 µM
  TGI: > 100 µM

## NCCCCNCCCNC(=O)c1nc(-c2csc(CCN)n2)sc1Cl
[1]
  TGI: > 100 µM
[2]
  TGI: > 100 µM
[6]
  TGI: > 100 µM
[7]
  TGI: > 100 µM
[8]
  TGI: > 100 µM
[10]
  TGI: > 100 µM
[9]
  TGI: > 100 µM
